{
  "source": "patent US6191144A",
  "about": "“Method of using angiotensin converting enzyme inhibitor to stimulate angiogenesis” (priority 1999, dated 2001)",
  "key": {"B2-receptor": {"tested_on": "B2-receptor", "details": "B2-receptor antagonist; cited from earlier work"}, "coronary microvessels": {"tested_on": "coronary microvessels", "details": "Greiss reaction (Circulation, 95:176-182); cited from earlier work"}, "[1]": {"tested_on": "Angiotensin Converting Enzyme", "experiment": "Serum ACE activity (Sigma kit, FAPGG substrate) in treated ischemic rabbits", "format": "in vivo, New Zealand White rabbits", "details": "for residual ACE activity in serum (D14 serum activity/D10 serum activity): D14, 24 hours after injection, daily s.c. captopril 25 mg or quinaprilat 2 mg; for serum ACE activity as percentage of basal value: D40, after 5 days of discontinuation of injections; for serum ACE inhibition at any time: daily s.c. treatment, inferred from 24 hour trough at D14", "procedure": "The serum ACE activity in the blood samples obtained from ear vein was determined using a kit obtained from Sigma (St. Louis, Mo.). The procedure used is a spectrophotometric method utilizing the synthetic tripeptide substrate N-[3-(2-furyl)acryloyl]-L-phenylalanylglycylglycine (FAPGG). ACE catalyzes hydrolysis of FAPGG to furylacryloylphenylalanine (FAP) and glycylglycine, which results in a decrease in absorbance at a wavelength of 340 nm. The ACE activity in the sample was determined by comparing the sample reaction rate to that obtained with an ACE calibrator.\nThe efficiency of the treatment is calculated as the percentage of the D10 serum activity according to the ratio: D14 serum activity/D10 serum activity.\nFor the latter drug, tablets were daily dissolved in saline serum and the resulting suspension was injected. Acetylcholine chloride, serotonin […] sulfate, and sodium nitroprusside were all purchased from Sigma Chemical Co., St. Louis, Mo."}, "[2]": {"tested_on": "Angiotensin Converting Enzyme", "experiment": "Tissue ACE activity in thigh muscle homogenate of treated rabbits", "format": "in vivo, New Zealand White rabbits", "details": "for mean tissue ACE activity in thigh muscles: additional rabbits treated D10 up to D35; for residual tissue ACE activity, % of non-treated tissue activity: thigh muscle, treated D10 up to D35", "excerpt": "Then, they were sacrificed, and muscles harvested for tissue in order to measure tissue ACE activity.\nIn order to determine the tissue ACE activity, muscles from the additional group were harvested, weighed, and homogenized in PBS. The obtained solution was used as a substrate for the ACE determination kit (Sigma, St. Louis, Mo.), and the result, divided by sample weight, is expressed as international units per gram of tissue (Ul/g)."}, "[3]": {"tested_on": "rabbit ischemic hindlimb model", "experiment": "Angiographic score of collateral development", "details": "D40; medial thigh"}, "[4]": {"tested_on": "rabbit ischemic hindlimb model", "experiment": "Capillary density in ischemic hindlimb muscles", "details": "D40; medial thigh muscles of ischemic limb"}, "[5]": {"tested_on": "rabbit ischemic hindlimb model", "experiment": "Lower-limb blood pressure ratio (ischemic/normal limb)", "format": "in vivo, New Zealand White rabbits", "details": "D40", "procedure": "(§1) The animal model was a previously described rabbit ischemic hindlimb model (J. Clin. Invest. 93:662-670). […] A longitudinal incision was then performed, extending from the inguinal ligament to a point just proximal to the patella. Through this incision, the femoral artery and each of its branches were dissected free along its entire length. After dissecting the popliteal and saphenous arteries distally, the external iliac artery and all of the above arteries were ligated with 4.0 silk (Ethicon, Sommerville, N.J.). Finally, the femoral artery was completely excised from its proximal origin as a branch of the external iliac artery, to the point distally where it bifurcates to form the saphenous and popliteal arteries. Following excision of the femoral artery, retrograde propagation of thrombus leads to occlusion of the external iliac artery. Blood flow to the ischemic limb consequently becomes dependent upon collateral vessels issuing from the internal iliac artery.\nAnimals with limb ischemia were randomly divided into 4 groups. […] The ischemic control group consisted of 6 rabbits receiving no medication of any kind."}, "[6]": {"tested_on": "rabbit ischemic hindlimb model", "experiment": "Vasomotor reactivity: blood flow ratio in internal iliac artery after vasoactive agents", "format": "in vivo, New Zealand White rabbits", "details": "D40; for blood flow ratio (stimulated flow/basal flow), acetylcholine: acetylcholine 1.5 μg/min/kg intra-arterial; for blood flow ratio (stimulated flow/basal flow), nitroprusside: nitroprusside 1.5 μg/min/kg intra-arterial; for blood flow ratio (stimulated flow/basal flow), serotonin: serotonin 1.5 μg/min/kg intra-arterial", "procedure": "After measurement of lower limb blood pressure, a 3 Fr., end-hole infusion catheter (Tracker-i 8 TM, Target Therapeutics, San Jose, Calif.) was inserted into the left common carotid artery and advanced to the abdominal aorta. A 0.018 inch Doppler guidewire (Cardiometrics, Inc., Mountain View, Calif.) was advanced through the 3 Fr. infusion to the proximal segment of the internal iliac artery supplying the ischemic limb.\nVascular reactivity was assessed in this study measuring the variation of blood flow induced by vasodilators in the internal iliac artery of the ischemic limb. Blood flow was calculated from the Doppler measurements, using the formula QD =(πd^2 /4)(0.5×APV), where QD =Doppler-derived time average flow, d=vessel diameter, and APV=time average of the spectral peak velocity (Am. J Physiol., 1994;267:H1263-H1271). The mean velocity was estimated as 0.5×APV by assuming a time-averaged parabolic velocity profile across the vessel. […] The angiographic diameter of main collateral artery was determined using an automated edge-detection system that has been previously validated in vivo (Am. J Physiol., 1994;267:H1263-H1271). […] Center-lines were traced manually for a 10-mm long segment beginning immediately distal to the tip of the Doppler wire. The contours were subsequently detected automatically on the basis of the weighted sum of first and second derivative functions applied to the digitized brightness information. The vascular diameter was then measured at the site of the Doppler sample volume, i.e., 5 mm distal to the wire tip (Am. J Physiol., 1994;267:H1263-H1271). Cross-sectional area was calculated assuming a circular lumen.\nThe results of calculation for blood flow are expressed as the ratio of blood flow after vasodilator injection to basal blood flow, measured just before the injection."}, "[7]": {"tested_on": "rabbit ischemic hindlimb model", "experiment": "Vascular resistance ratio at internal iliac artery after vasoactive agents", "details": "D40"}, "[8]": {"tested_on": "rabbit ischemic hindlimb model", "details": "D40 vs control", "procedure": "Angiogenesis following resection of femoral artery was assessed at Day 10 (D10) and D40 post-operatively on functional (blood pressure ratio of ischemic to healthy limb, vasoreactivity and resistance) and morphological (angiography and capillary density) criteria.\nas §1, with “Blood flow to the ischemic limb consequently becomes dependent upon collateral vessels issuing from the internal iliac artery.” left out\nThe four groups were investigated at D10 and D40 post-operatively at which time lower limb blood pressure, vasomotor reactivity, and angiographic score were evaluated. […]"}, "[9]": {"details": "Day 10 (basal value, before treatment)"}, "[10]": {"details": "Day 40 (5 days after discontinuation)"}},
  "note": "“Also recorded” adds a separate entry of the source.",
  "data": [
    {"compound": "NC(N)=NCCC[C@@H](N)C(=O)N[C@@H](CCCN=C(N)N)C(=O)N1CCC[C@H]1C(=O)N1C[C@H](O)C[C@H]1C(=O)NCC(=O)N[C@@H](Cc1cccs1)C(=O)N[C@@H](CO)C(=O)N1Cc2ccccc2C[C@@H]1C(=O)N1[C@H](C(=O)N[C@@H](CCCN=C(N)N)C(=O)O)C[C@@H]2CCCC[C@@H]21", "note": "[Icatibant]", "values": [
      {"measurement": "effect on cardiac capillary length density induced by ACE inhibition", "setting": "B2-receptor", "result": "inhibited"}
    ]},
    {"compound": "C[C@H](CS)C(=O)N1CCC[C@H]1C(=O)O", "note": "[captopril]", "values": [
      {"measurement": "NO accumulation", "setting": "coronary microvessels", "result": "promotion of NO accumulation"},
      {"measurement": "residual ACE activity in serum (D14 serum activity/D10 serum activity)", "setting": "[1]", "result": "42.54±0.03", "unit": "%"},
      {"measurement": "serum ACE activity as percentage of basal value", "setting": "[1]", "result": "92.87±0.04", "unit": "%"},
      {"measurement": "Serum ACE Activity", "setting": "[1]; [9]", "result": "55.94 ± 0.75", "unit": "U/L"},
      {"measurement": "Serum ACE Activity", "setting": "[1]; Day 14 (efficiency value)", "result": "23.92 ± 0.60", "unit": "U/L"},
      {"measurement": "Serum ACE Activity", "setting": "[1]; [10]", "result": "51.80 ± 0.80", "unit": "U/L"},
      {"measurement": "serum ACE inhibition at any time", "setting": "[1]", "result": "higher than 50%"},
      {"measurement": "mean tissue ACE activity in thigh muscles", "setting": "[2]", "result": "7.65±1.69", "unit": "Ul/g"},
      {"measurement": "residual tissue ACE activity, % of non-treated tissue activity", "setting": "[2]", "result": 61, "unit": "%"},
      {"measurement": "angiographic score", "setting": "[3]", "result": "35.03±0.02", "unit": "%"},
      {"measurement": "capillary density", "setting": "[4]", "result": "147.2±11.9 /mm^2"}
    ]},
    {"compound": "C[C@H](N[C@@H](CCc1ccccc1)C(=O)O)C(=O)N1CCC[C@H]1C(=O)O", "note": "[enalaprilat]", "values": [
      {"measurement": "NO accumulation", "setting": "coronary microvessels", "result": "promotion of NO accumulation"}
    ]},
    {"compound": "C[C@H](N[C@@H](CCc1ccccc1)C(=O)O)C(=O)N1Cc2ccccc2C[C@H]1C(=O)O", "note": "[quinaprilat]", "values": [
      {"measurement": "Body Weight", "setting": "Body weight (Table 1); Day 10", "result": "4.19 ± 0.10", "unit": "kg"},
      {"measurement": "Body Weight", "setting": "Body weight (Table 1); Day 40", "result": "4.54 ± 0.20", "unit": "kg"},
      {"measurement": "ischemic/normal calf systolic blood pressure ratio", "setting": "[5]", "result": "0.86±0.03"},
      {"measurement": "residual ACE activity in serum (D14 serum activity/D10 serum activity)", "setting": "[1]", "result": "41.53±0.02", "unit": "%"},
      {"measurement": "serum ACE activity as percentage of basal value", "setting": "[1]", "result": "80.71±0.08", "unit": "%"},
      {"measurement": "Serum ACE Activity", "setting": "[1]; [9]", "result": "59.50 ± 1.38", "unit": "U/L"},
      {"measurement": "Serum ACE Activity", "setting": "[1]; Day 14 (efficiency value)", "result": "24.32 ± 0.46", "unit": "U/L"},
      {"measurement": "Serum ACE Activity", "setting": "[1]; [10]", "result": "46.40 ± 0.98", "unit": "U/L"},
      {"measurement": "serum ACE inhibition at any time", "setting": "[1]", "result": "higher than 50%"},
      {"measurement": "blood flow ratio (stimulated flow/basal flow), acetylcholine", "setting": "[6]", "result": "3.06±0.25"},
      {"measurement": "blood flow ratio (stimulated flow/basal flow), nitroprusside", "setting": "[6]", "result": "2.94±0.24"},
      {"measurement": "blood flow ratio (stimulated flow/basal flow), serotonin", "setting": "[6]", "result": "1.17±0.08"},
      {"measurement": "mean tissue ACE activity in thigh muscles", "setting": "[2]", "result": "1.69±0.70", "unit": "Ul/g"},
      {"measurement": "residual tissue ACE activity, % of non-treated tissue activity", "setting": "[2]", "result": 13, "unit": "%"},
      {"measurement": "vascular resistance ratio (after injection/basal), acetylcholine", "setting": "[7]", "result": "0.32±0.03"},
      {"measurement": "vascular resistance ratio (after injection/basal), nitroprusside", "setting": "[7]", "result": "0.28±0.02"},
      {"measurement": "vascular resistance ratio (after injection/basal), serotonin", "setting": "[7]", "result": "0.94±0.06"},
      {"measurement": "angiographic score", "setting": "[3]", "result": 51.19, "unit": "%"},
      {"measurement": "capillary density", "setting": "[4]", "result": "214.0±6.4 /mm^2"},
      {"measurement": "stimulation of angiogenesis (functional and morphological criteria)", "setting": "[8]", "result": "more developed angiogenesis; also recorded: improvement; also recorded: stimulates angiogenesis in vivo"}
    ]},
    {"compound": "CCOC(=O)[C@H](CCc1ccccc1)N[C@@H](C)C(=O)N1[C@H](C(=O)O)C[C@@H]2CCC[C@@H]21", "note": "[ramipril]", "values": [
      {"measurement": "NO accumulation", "setting": "coronary microvessels", "result": "promotion of NO accumulation"}
    ]},
    {"compound": "VEGF", "values": [
      {"measurement": "ischemic/normal calf systolic blood pressure ratio", "setting": "[5]", "result": "0.74±0.03"},
      {"measurement": "blood flow ratio (stimulated flow/basal flow), acetylcholine", "setting": "[6]", "result": "2.72±0.22"},
      {"measurement": "blood flow ratio (stimulated flow/basal flow), nitroprusside", "setting": "[6]", "result": "2.66±0.35"},
      {"measurement": "blood flow ratio (stimulated flow/basal flow), serotonin", "setting": "[6]", "result": "1.19±0.09"},
      {"measurement": "vascular resistance ratio (after injection/basal), acetylcholine", "setting": "[7]", "result": "0.35±0.03"},
      {"measurement": "vascular resistance ratio (after injection/basal), nitroprusside", "setting": "[7]", "result": "0.29±0.04"},
      {"measurement": "vascular resistance ratio (after injection/basal), serotonin", "setting": "[7]", "result": "0.77±0.04"},
      {"measurement": "angiographic score", "setting": "[3]", "result": "50.88±0.04", "unit": "%"},
      {"measurement": "capillary density", "setting": "[4]", "result": "228.8±9.6 /mm^2"},
      {"measurement": "stimulation of angiogenesis (functional and morphological criteria)", "setting": "[8]", "result": "more developed angiogenesis"}
    ]}
  ]
}
